Seven molecules from US9340590B2 (priority 2011, dated 2016) can be followed below.

What all share (assay): cell-based
For assay [1], the target named is T1, hNav1.7 (Homo sapiens, UniProt Q15858). The format is cell-based.
The target of assay [2] is T2, hNav1.5 (Homo sapiens, UniProt Q14524). The settings on record: IonWorks Quattro; clamped to −110 mV, depolarized to −10 mV, 5 min after compound; n=2; read-out: IWQ Use Nav1.5.
The next assay addresses hNav1.3 (Homo sapiens, UniProt Q9NY46). The settings on record: IonWorks Quattro; clamped to −110 mV, depolarized to −10 mV, 5 min after compound; n=2; read-out: IWQ Use Nav1.3. On the technique in general: Patch clamp records ionic current or voltage across a cell membrane.
For assay [3], the target named is T2, hNav1.5.
Assay [4] deals with T1, hNav1.7. The note with it: Nav1.7 Use IC50.
Where [5] appears, read: IonWorks Quattro, clamped to −110 mV, depolarized to −10 mV, 5 min after compound, n=2, read-out: IWQ Use Nav1.7.

Molecules are shown by their SMILES. Where two headings read alike, the source gives them in different places. Positions of bridges follow the written chain, without caps; N, C: chain ends. Non-standard residues stand in square brackets, D forms with d. Residues, ends and D or L forms follow the SMILES beside them. Lys(Me2) = CN(C)CCCC[C@H](N)C(=O)O

T2 sequence (Q14524 whole entry, looked up): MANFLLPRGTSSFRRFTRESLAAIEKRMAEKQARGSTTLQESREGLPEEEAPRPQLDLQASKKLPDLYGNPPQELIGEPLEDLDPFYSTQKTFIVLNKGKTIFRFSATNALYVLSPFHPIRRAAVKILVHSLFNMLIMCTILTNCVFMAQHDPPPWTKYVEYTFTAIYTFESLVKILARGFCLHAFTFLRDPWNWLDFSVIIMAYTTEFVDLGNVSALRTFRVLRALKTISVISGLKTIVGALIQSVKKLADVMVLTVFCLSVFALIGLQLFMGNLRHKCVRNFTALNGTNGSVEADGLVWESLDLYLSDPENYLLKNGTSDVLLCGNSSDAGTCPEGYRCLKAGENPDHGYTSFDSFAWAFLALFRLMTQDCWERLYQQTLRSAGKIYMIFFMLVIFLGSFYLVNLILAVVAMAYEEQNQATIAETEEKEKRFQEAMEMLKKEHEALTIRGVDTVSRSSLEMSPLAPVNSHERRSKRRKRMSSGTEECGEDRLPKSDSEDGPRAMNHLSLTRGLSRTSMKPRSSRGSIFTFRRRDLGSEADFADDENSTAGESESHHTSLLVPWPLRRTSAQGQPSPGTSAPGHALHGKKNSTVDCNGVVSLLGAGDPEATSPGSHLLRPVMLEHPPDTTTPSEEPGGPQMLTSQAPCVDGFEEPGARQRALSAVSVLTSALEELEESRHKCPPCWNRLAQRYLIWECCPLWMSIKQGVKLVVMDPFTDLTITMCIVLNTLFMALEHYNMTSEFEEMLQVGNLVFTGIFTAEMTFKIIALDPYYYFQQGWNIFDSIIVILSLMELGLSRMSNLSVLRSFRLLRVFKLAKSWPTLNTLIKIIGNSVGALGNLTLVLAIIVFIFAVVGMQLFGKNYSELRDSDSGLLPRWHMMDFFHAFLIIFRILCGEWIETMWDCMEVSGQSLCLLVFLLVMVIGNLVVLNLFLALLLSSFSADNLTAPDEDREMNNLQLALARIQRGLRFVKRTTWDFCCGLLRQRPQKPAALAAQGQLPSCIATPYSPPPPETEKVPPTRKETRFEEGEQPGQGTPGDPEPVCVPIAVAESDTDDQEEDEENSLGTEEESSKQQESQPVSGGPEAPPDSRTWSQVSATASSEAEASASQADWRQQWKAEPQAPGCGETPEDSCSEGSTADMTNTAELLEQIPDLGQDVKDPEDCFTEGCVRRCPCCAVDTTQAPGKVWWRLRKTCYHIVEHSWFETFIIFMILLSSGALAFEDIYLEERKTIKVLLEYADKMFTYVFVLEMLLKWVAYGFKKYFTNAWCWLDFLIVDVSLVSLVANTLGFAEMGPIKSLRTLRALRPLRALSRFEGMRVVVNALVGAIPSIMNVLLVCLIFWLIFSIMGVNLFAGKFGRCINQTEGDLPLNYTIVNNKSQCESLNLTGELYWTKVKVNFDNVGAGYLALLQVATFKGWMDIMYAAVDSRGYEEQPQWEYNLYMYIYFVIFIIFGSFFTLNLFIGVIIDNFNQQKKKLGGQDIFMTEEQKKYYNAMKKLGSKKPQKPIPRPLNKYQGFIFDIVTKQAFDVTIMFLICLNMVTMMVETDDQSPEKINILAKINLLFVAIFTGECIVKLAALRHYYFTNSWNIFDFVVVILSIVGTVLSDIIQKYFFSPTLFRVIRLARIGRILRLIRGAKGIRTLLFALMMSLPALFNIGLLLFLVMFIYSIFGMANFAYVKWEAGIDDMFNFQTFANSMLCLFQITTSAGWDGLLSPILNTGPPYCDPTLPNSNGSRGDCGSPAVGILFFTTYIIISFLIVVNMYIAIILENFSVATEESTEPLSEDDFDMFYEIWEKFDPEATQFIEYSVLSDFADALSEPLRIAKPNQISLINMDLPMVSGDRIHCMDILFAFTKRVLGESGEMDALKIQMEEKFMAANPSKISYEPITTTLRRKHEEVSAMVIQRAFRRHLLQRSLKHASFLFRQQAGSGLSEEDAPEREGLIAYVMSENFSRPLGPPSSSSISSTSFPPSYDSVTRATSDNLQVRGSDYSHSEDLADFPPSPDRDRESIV
T1 sequence (Q15858 whole entry, looked up): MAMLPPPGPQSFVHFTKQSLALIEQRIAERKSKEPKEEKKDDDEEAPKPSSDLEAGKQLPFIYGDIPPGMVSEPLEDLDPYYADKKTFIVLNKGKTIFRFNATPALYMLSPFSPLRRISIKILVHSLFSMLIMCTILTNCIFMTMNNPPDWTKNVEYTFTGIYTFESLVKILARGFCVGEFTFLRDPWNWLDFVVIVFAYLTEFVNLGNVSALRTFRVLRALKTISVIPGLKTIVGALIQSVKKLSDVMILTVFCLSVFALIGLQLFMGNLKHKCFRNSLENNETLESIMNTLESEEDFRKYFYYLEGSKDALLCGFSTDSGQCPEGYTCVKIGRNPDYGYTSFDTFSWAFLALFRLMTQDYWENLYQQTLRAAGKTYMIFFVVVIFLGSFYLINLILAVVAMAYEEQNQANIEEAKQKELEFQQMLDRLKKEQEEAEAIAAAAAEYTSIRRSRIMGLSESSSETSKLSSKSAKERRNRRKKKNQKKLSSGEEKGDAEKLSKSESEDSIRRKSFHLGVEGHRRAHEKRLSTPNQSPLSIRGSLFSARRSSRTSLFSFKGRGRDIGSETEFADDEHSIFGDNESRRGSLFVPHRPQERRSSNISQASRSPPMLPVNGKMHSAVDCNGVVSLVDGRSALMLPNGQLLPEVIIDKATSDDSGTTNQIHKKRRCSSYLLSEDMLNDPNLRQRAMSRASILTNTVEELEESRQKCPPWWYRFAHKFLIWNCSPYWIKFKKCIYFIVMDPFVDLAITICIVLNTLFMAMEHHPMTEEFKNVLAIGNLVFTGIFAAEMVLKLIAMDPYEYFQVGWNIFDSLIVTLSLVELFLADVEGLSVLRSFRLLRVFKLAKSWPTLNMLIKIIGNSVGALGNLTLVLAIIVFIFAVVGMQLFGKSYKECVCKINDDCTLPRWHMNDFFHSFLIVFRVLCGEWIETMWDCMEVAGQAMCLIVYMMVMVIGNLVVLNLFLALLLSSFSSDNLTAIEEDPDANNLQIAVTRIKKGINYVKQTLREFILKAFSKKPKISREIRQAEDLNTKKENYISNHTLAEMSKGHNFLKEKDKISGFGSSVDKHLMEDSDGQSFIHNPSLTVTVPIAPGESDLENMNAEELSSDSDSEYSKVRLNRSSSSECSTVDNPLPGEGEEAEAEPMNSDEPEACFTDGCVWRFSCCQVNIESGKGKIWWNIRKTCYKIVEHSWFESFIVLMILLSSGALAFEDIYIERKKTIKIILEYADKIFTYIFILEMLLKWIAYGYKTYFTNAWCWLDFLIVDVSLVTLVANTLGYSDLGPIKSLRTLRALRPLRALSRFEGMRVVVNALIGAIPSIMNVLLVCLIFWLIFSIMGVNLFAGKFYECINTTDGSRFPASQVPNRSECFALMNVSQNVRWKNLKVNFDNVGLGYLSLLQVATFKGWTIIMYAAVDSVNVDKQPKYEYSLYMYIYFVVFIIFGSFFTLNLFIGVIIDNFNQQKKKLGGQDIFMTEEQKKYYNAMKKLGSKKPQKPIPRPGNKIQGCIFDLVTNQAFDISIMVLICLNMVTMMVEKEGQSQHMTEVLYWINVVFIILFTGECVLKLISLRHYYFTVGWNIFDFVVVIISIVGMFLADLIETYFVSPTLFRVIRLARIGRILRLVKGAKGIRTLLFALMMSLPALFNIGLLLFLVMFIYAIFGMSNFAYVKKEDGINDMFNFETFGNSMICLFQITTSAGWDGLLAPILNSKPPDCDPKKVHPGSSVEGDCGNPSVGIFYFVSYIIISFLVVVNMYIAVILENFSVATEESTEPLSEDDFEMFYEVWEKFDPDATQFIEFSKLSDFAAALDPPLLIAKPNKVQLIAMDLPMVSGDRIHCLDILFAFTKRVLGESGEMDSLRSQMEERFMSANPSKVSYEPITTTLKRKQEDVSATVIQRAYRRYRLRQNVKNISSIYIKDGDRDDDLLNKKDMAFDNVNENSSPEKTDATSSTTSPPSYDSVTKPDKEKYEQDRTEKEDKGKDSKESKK

For the molecule `CC[C@H](C)[C@@H]1NC(=O)[C@@H]2CSSC[C@@H]3NC(=O)[C@H](C(C)C)NC(=O)[C@H](CC(C)C)NC(=O)[C@H](CC(N)=O)NC(=O)[C@@H]4CCCN4C(=O)[C@H](CCCNC(=N)N)NC(=O)[C@H](CSSC[C@H](NC(=O)[C@@H](N)CC(=O)O)C(=O)N[C@@H](CC(C)C)C(=O)N[C@@H](CCCCN)C(=O)N[C@@H](Cc4ccccc4)C(=O)N[C@@H](CCSC)C(=O)N[C@@H](CCCNC(=N)N)C(=O)N[C@@H](CCCCN)C(=O)N2)NC(=O)[C@H](CSSC[C@@H](C(=O)N[C@@H](CCCCN)C(=O)N[C@@H](Cc2ccc(O)cc2)C(=O)N[C@H](C(=O)N[C@@H](Cc2ccccc2)C(N)=O)C(C)C)NC(=O)[C@H](Cc2c[nH]c4ccccc24)NC(=O)[C@H](CCCCN)NC(=O)[C@H](Cc2cnc[nH]2)NC(=O)[C@H]([C@@H](C)O)NC(=O)[C@H](CCCNC(=N)N)NC(=O)[C@H](CO)NC3=O)NC(=O)[C@H](CCCCN)NC(=O)[C@H](CC(=O)O)NC(=O)[C@H](CC(N)=O)NC(=O)[C@H](CC(=O)O)NC(=O)[C@@H]2CCCN2C1=O` [SEQ ID NO: 39] (H-DCLKFMRKCIPDNDKCCRPNLVCSRTHKWCKYVF-NH2; disulfide 2-17, 9-23, 16-30), the IC50 against hNav1.7 [1] is 200 nM; on hNav1.5 [2], 9820 nM; at hNav1.3, 180 nM; at hNav1.5 [3] it was 10600 nM.

Consider `CC[C@H](C)[C@@H]1NC(=O)[C@@H]2CSSC[C@@H]3NC(=O)[C@H](C(C)C)NC(=O)[C@H](CC(C)C)NC(=O)[C@H](CC(N)=O)NC(=O)[C@@H]4CCCN4C(=O)[C@H](CCCNC(=N)N)NC(=O)[C@H](CSSC[C@H](NC(=O)[C@@H](N)CC(=O)O)C(=O)N[C@@H](CC(C)C)C(=O)N[C@@H](CCCNC(=N)N)C(=O)N[C@@H](Cc4ccccc4)C(=O)N[C@@H](CCSC)C(=O)N[C@@H](CCCNC(=N)N)C(=O)N[C@@H](CCCCN)C(=O)N2)NC(=O)[C@H](CSSC[C@@H](C(=O)N[C@@H](CCCCN)C(=O)N[C@@H](Cc2ccc(O)cc2)C(=O)N[C@H](C(=O)N[C@@H](Cc2ccccc2)C(N)=O)C(C)C)NC(=O)[C@H](Cc2c[nH]c4ccccc24)NC(=O)[C@H](CCCCN)NC(=O)[C@H](Cc2cnc[nH]2)NC(=O)[C@H]([C@@H](C)O)NC(=O)[C@H](CCCNC(=N)N)NC(=O)[C@H](CO)NC3=O)NC(=O)[C@H](CCCCN)NC(=O)[C@H](CC(=O)O)NC(=O)[C@H](CC(N)=O)NC(=O)[C@H](CC(=O)O)NC(=O)[C@@H]2CCCN2C1=O` [SEQ ID NO: 63] (H-DCLRFMRKCIPDNDKCCRPNLVCSRTHKWCKYVF-NH2; disulfide 2-17, 9-23, 16-30), for which the IC50 at hNav1.7 [1] was determined as 210 nM; at hNav1.5 [2] it was 20100 nM; at hNav1.3 it was 230 nM; on hNav1.5 [3], 5000 nM.

Turning to `CC[C@H](C)[C@@H]1NC(=O)CNC(=O)[C@H](CC(C)C)NC(=O)[C@@H](NC(=O)[C@@H](N)CC(=O)O)CSSC[C@@H]2NC(=O)[C@@H]3CSSC[C@@H](C(=O)N[C@@H](CCCCN)C(=O)N[C@@H](Cc4ccc(O)cc4)C(=O)N[C@H](C(=O)N[C@@H](Cc4ccccc4)C(N)=O)C(C)C)NC(=O)[C@H](Cc4c[nH]c5ccccc45)NC(=O)[C@H](CCCCN)NC(=O)[C@H](Cc4cnc[nH]4)NC(=O)[C@H]([C@@H](C)O)NC(=O)[C@H](CCCNC(=N)N)NC(=O)[C@H](CO)NC(=O)[C@H](CSSC[C@H](NC(=O)[C@H](CCCCN)NC(=O)[C@H](CCCNC(=N)N)NC(=O)[C@H](CCSC)NC1=O)C(=O)N[C@@H]([C@@H](C)CC)C(=O)N1CCC[C@H]1C(=O)N[C@@H](CC(=O)O)C(=O)N[C@@H](CC(N)=O)C(=O)N[C@@H](CC(=O)O)C(=O)N[C@@H](CCCCN)C(=O)N3)NC(=O)[C@H](C(C)C)NC(=O)[C@H](CC(C)C)NC(=O)[C@H](CC(N)=O)NC(=O)[C@@H]1CCCN1C(=O)[C@H](CCCNC(=N)N)NC2=O` [SEQ ID NO: 88] (H-DCLGIMRKCIPDNDKCCRPNLVCSRTHKWCKYVF-NH2; disulfide 2-17, 9-23, 16-30), the IC50 on hNav1.7 [1] (setting [5]) stood at 360 nM; at hNav1.5 [2], 6650 nM; on hNav1.3 it was 620 nM; on hNav1.7 [4] it was 2 nM.

Turning to `CC[C@H](C)[C@@H]1NC(=O)[C@@H]2CSSC[C@@H]3NC(=O)[C@H](C(C)C)NC(=O)[C@H](CC(C)C)NC(=O)[C@H](CC(N)=O)NC(=O)[C@@H]4CCCN4C(=O)[C@H](CCCNC(=N)N)NC(=O)[C@H](CSSC[C@H](N)C(=O)N[C@@H](CC(C)C)C(=O)NCC(=O)N[C@@H](Cc4ccccc4)C(=O)N[C@@H](CCSC)C(=O)N[C@@H](CCCNC(=N)N)C(=O)N[C@@H](CCCCN)C(=O)N2)NC(=O)[C@H](CSSC[C@@H](C(=O)N[C@@H](CCCCN)C(=O)N[C@@H](Cc2ccc(O)cc2)C(=O)N[C@H](C(=O)N[C@@H](Cc2ccccc2)C(N)=O)C(C)C)NC(=O)[C@H](Cc2c[nH]c4ccccc24)NC(=O)[C@H](CCCCN)NC(=O)[C@H](Cc2c[nH]cn2)NC(=O)[C@H]([C@@H](C)O)NC(=O)[C@H](CCCNC(=N)N)NC(=O)[C@H](CO)NC3=O)NC(=O)[C@H](CCCCN)NC(=O)[C@H](CC(=O)O)NC(=O)[C@H](CC(N)=O)NC(=O)[C@H](CC(=O)O)NC(=O)[C@@H]2CCCN2C1=O` [SEQ ID NO: 108] (H-CLGFMRKCIPDNDKCCRPNLVCSRTHKWCKYVF-NH2; disulfide 1-16, 8-22, 15-29), the figures for the IC50 on hNav1.7 [1] (setting [5]) and at hNav1.5 [3] (read-out: Nav1.5 Use IC50) were 70 nM and 4940 nM, respectively.

For the molecule `CC[C@H](C)[C@@H]1NC(=O)[C@@H]2CSSC[C@@H]3NC(=O)[C@H](C(C)C)NC(=O)[C@H](CC(C)C)NC(=O)[C@H](CC(N)=O)NC(=O)[C@@H]4CCCN4C(=O)[C@H](CCCNC(=N)N)NC(=O)[C@H](CSSC[C@H](NC(=O)[C@@H](N)CC(=O)O)C(=O)N[C@@H](CC(C)C)C(=O)NCC(=O)N[C@@H](CC(C)C)C(=O)N[C@@H](CCSC)C(=O)N[C@@H](CCCNC(=N)N)C(=O)N[C@@H](CCCCN)C(=O)N2)NC(=O)[C@H](CSSC[C@@H](C(=O)N[C@@H](CCCCN)C(=O)N[C@@H](Cc2ccc(O)cc2)C(=O)N[C@H](C(=O)N[C@@H](Cc2ccccc2)C(N)=O)C(C)C)NC(=O)[C@H](Cc2c[nH]c4ccccc24)NC(=O)[C@H](CCCCN)NC(=O)[C@H](Cc2cnc[nH]2)NC(=O)[C@H]([C@@H](C)O)NC(=O)[C@H](CCCNC(=N)N)NC(=O)[C@H](CO)NC3=O)NC(=O)[C@H](CCCCN)NC(=O)[C@H](CC(=O)O)NC(=O)[C@H](CC(N)=O)NC(=O)[C@H](CC(=O)O)NC(=O)[C@@H]2CCCN2C1=O` [SEQ ID NO: 267] (H-DCLGLMRKCIPDNDKCCRPNLVCSRTHKWCKYVF-NH2; disulfide 2-17, 9-23, 16-30), the IC50 against hNav1.7 [1] was 170 nM; at hNav1.5 [2] it was 7400 nM; on hNav1.3, 300 nM; against hNav1.7 [4], 7 nM.

In the case of `CC[C@H](C)[C@@H]1NC(=O)[C@@H]2CSSC[C@@H]3NC(=O)[C@H](C(C)C)NC(=O)[C@H](CC(C)C)NC(=O)[C@H](CC(N)=O)NC(=O)[C@@H]4CCCN4C(=O)[C@H](CCCNC(=N)N)NC(=O)[C@H](CSSC[C@H](NC(=O)[C@@H](N)CC(=O)O)C(=O)N[C@@H](CC(C)C)C(=O)NCC(=O)N[C@@H](C(C)C)C(=O)N[C@@H](CCSC)C(=O)N[C@@H](CCCNC(=N)N)C(=O)N[C@@H](CCCCN)C(=O)N2)NC(=O)[C@H](CSSC[C@@H](C(=O)N[C@@H](CCCCN)C(=O)N[C@@H](Cc2ccc(O)cc2)C(=O)N[C@H](C(=O)N[C@@H](Cc2ccccc2)C(N)=O)C(C)C)NC(=O)[C@H](Cc2c[nH]c4ccccc24)NC(=O)[C@H](CCCCN)NC(=O)[C@H](Cc2cnc[nH]2)NC(=O)[C@H]([C@@H](C)O)NC(=O)[C@H](CCCNC(=N)N)NC(=O)[C@H](CO)NC3=O)NC(=O)[C@H](CCCCN)NC(=O)[C@H](CC(=O)O)NC(=O)[C@H](CC(N)=O)NC(=O)[C@H](CC(=O)O)NC(=O)[C@@H]2CCCN2C1=O` [SEQ ID NO: 272] (H-DCLGVMRKCIPDNDKCCRPNLVCSRTHKWCKYVF-NH2; disulfide 2-17, 9-23, 16-30), the IC50 turned out to be 710 nM at hNav1.7 [1] (setting [5]), 13200 nM at hNav1.5 [2], 1030 nM on hNav1.3 and 18 nM against hNav1.7 [4].

Turning to `CC[C@H](C)[C@@H]1NC(=O)[C@@H]2CSSC[C@@H]3NC(=O)[C@H](C(C)C)NC(=O)[C@H](CC(C)C)NC(=O)[C@H](CC(N)=O)NC(=O)[C@@H]4CCCN4C(=O)[C@H](CCCCN(C)C)NC(=O)[C@H](CSSC[C@H](NC(=O)[C@@H](N)CC(=O)O)C(=O)N[C@@H](CC(C)C)C(=O)NCC(=O)N[C@@H](Cc4ccccc4)C(=O)N[C@@H](CCSC)C(=O)N[C@@H](CCCNC(=N)N)C(=O)N[C@@H](CCCCN)C(=O)N2)NC(=O)[C@H](CSSC[C@@H](C(=O)N[C@@H](CCCCN)C(=O)N[C@@H](Cc2ccc(O)cc2)C(=O)N[C@H](C(=O)N[C@@H](Cc2ccccc2)C(N)=O)C(C)C)NC(=O)[C@H](Cc2c[nH]c4ccccc24)NC(=O)[C@H](CCCCN)NC(=O)[C@H](Cc2cnc[nH]2)NC(=O)[C@H]([C@@H](C)O)NC(=O)[C@H](CCCNC(=N)N)NC(=O)[C@H](CO)NC3=O)NC(=O)[C@H](CCCCN)NC(=O)[C@H](CC(=O)O)NC(=O)[C@H](CC(N)=O)NC(=O)[C@H](CC(=O)O)NC(=O)[C@@H]2CCCN2C1=O` [[K(Me2)18]GpTx-1(1-34)] (H-DCLGFMRKCIPDNDKCC[Lys(Me2)]PNLVCSRTHKWCKYVF-NH2; disulfide 2-17, 9-23, 16-30), on hNav1.5 [3], the IC50 is 10000 nM.
